The record followed here is US20210087159A1, “TETRAHYDROCANNABINOLIC- CA[…] DERIVATIVES AND USES THEREOF” (AL&AM […]., priority 2018, published 2021).

Molecules are shown by their SMILES. A value given as a limit tells only on which side of the number the result lay.

Assay type in all cases: cell-based
One test has as its system TNF-α. Put plainly: LPS induced cytokine release assay, TNF-α by ELISA in PBMCs. The conditions noted are these: human PBMCs; for TNF-α: 72 h; for change of TNF-α expression in LPS-treated cells: tested concentrations of 1 M and 10 M (so in the source). The text has this:
(§1) This study was aimed to test the effect of 12 compounds (THCA, Ia1, Ia5, Ia6, Ia9, Ia11, Ia15, Ia17, Ia24, Ia25, Ia27, and Ia28) on human peripheral blood mononuclear cells (PBMCs) challenged by lipopolysaccharide (LPS) through monitoring multiple inflammatory endpoints.
(§2) Blood samples were collected from healthy volunteers according to protocols that have been reviewed and approved by the Chempartner Institutional Ethic Committee (IEC) upon signing an Informed Consent Form (ICF).
(§3) Fresh PBMCs were isolated and seeded into 96-well plate, and diluted solutions of the tested compounds and 0.1 μg/mL LPS were then added (in triplicates). To serve as control, 3 wells with PBMCs only, 3 wells with 0.1 μg/mL LPS, and 2 wells with 1 μg/mL dexamethasone (Dex) and 0.1 μg/mL LPS were included. After 72 hours incubation, supernatant was collected for tumor necrosis factor-α (TNF-α) measurement by enzyme-linked immunosorbent assay (ELISA), and cell pellets were harvested for cell proliferation measurement by CellTiter-Glo® Luminescent Cell Viability Assay (CTG).
(§4) The human blood sample from an individual donor was diluted by the same volume of sterile phosphate buffered solution (PBS) and mixed sufficiently by gentle shake. 15 mL Lymphoprep™ medium was transferred into a new 50 mL centrifuge tube, and the diluted blood sample (30 mL) was then carefully added onto the surface of the medium, which consequently contained Ficoll 400 and blood in a volume ratio of 1:2. Four interfaces were observed after centrifugation, which are, from top to bottom, layers of plasma, mononuclear cells, Ficoll medium, and red blood cells (RBCs). Plasma was absorbed, and mononuclear cells were then transferred into another new sterile centrifuge tube. Then, sterile PBS buffer was added into the collected PBMCs for washing, at a volume ratio of 3:1. PBMCs were washed with 5-10 mL PBS twice before cell counting with cytometer. Cells were centrifuged at 350×g, for 10 min, at 20° C. with the acceleration (5) and deceleration (5) settings during the centrifugation. The cells were resuspended with RPMI 1640 complete medium (containing 10% FBS) for assay, and the density was adjusted with RPMI 1640 complete medium to the final concentration of 2E6 cells/mL. Cells suspension of the PBMCs (100 μL/well) were seeded into 96-well plate (#3903).
(§5) Diluted solutions of the tested compounds were prepared with RPMI 1640 complete medium according to the following layout. Compounds were prepared at 5-fold of concentration (50 μM), and then were diluted to the working concentration of 10 μM with RPMI 1640 complete medium and made 10-fold serially dilution (2 points). The diluted compounds (50 μL/well) were added to the indicated wells, and the plate was incubated at 37° C., 5% CO2, for 72 h.
(§6) LPS (0.1 μg/mL, 100 μL) was added into each well. Dex (1 μg/mL) was included as a positive control. Plate was incubated at 37° C., 5% CO2 for 72 h. Supernatant was collected to measure TNF-α by ELISA. Cell proliferation was detected by CTG.
(In an ELISA, binding on a coated surface is turned into a signal by an enzyme label.)

In test [1] the test system is human peripheral blood mononuclear cells (PBMCs). The test can be described thus: Cell proliferation of LPS-challenged PBMCs by CellTiter-Glo (CTG). The conditions noted are these: human PBMCs.
Source text: as §1, §2, §3, §4, §5, §6
In general terms: Cellular ATP, detected with luciferase, serves as a proxy for viable cell number.

The test system of test [2] is T47D, breast ductal carcinoma. Put plainly: CellTiter-Glo cell viability assay, cancer cell cytotoxicity/anti-proliferation panel (Chempartner). The conditions noted are these: Table 5, T47D cells, 72 hours; for IC50: Homo sapiens, read-out: AbsIC50; for Inhibition %: 10 μM starting, 10-pt, 3-fold dilution. As for the experimental part: In this study, the biological activity of certain compounds of the present invention on cancer cell cytotoxicity/anti-proliferation panel was tested using the CellTiter-Glo® cell viability assay. The compounds were dissolved in DMSO to make 10 mM solution.
The cell lines tested were all selected from the Chempartner's cell collection and included: Caco-2 ATCC colon adenocarcinoma; TE-6 RIKEN esophagus, carcinoma; PC-3 ATCC prostate adenocarcinoma; T47D, breast ductal carcinoma; U251, brain human glioma; A549, lung carcinoma; OMP-2, multiple myeloma; SK-HEP-1, liver adenocarcinoma; PANC-1, pancreas ductal carcinoma; AsPC-1, pancreas, ductal carcinoma; and U-87 MG, brain glioblastoma.
For the assays described herein, absolute inhibition of cells growth (%) and absolute IC50 (Abs IC50; […]) were used to derive a value that can be used to compare results within and across runs in the same assay, as well as between different assays.
• a. Prepare complete medium: Add FBS and appropriate additives according to the information sheet provided by the vendor. Mix gently. • b. Check the cell name and complete medium and passage number marked on the flask. For adherent cell lines, refer to c to k. For suspension cell lines, refer to g to k. • c. Remove and discard culture medium using a vacuum pump. • d. Briefly rinse the cell layer with 0.25% (w/v) trypsin-0.038% (w/v) EDTA solution to remove all traces of serum that contains trypsin inhibitor. • e. Add 3.0 ml of trypsin-EDTA solution to flask and observe cells under an inverted microscope until cell layer is dispersed. • f. Add 8.0 ml of complete growth medium and aspirate cells by gently pipetting. • g. Transfer the cell suspension to a centrifuge tube and centrifuge at 800-1000 rpm for 3-5 minutes. • h. Discard the supernatant using a vacuum pump. • i. Add appropriate volume of complete medium. Suspend the cell pellet by gently pipetting. • j. Count the cell numbers with Vi-cell XR and adjust cells to appropriate density. • k. Add 100 μL of cell suspension to 96-well opaque-walled clear bottom plates according to the planned plate layout and place the plates in the CO2 incubator overnight. • l. Plate layout:
• Plate preparation of testing articles. 10 mM stock solution of each one of the compounds (provided as powder) was prepared in DMSO. […] 0.5 μL of each of the diluted compounds was transferred to the wells containing 100 μL of the culture medium. The total dilution was 200 fold. Cells were incubated with the compounds for 72 hours at 5% CO2, 37° C.
• Thaw the CellTiter-Glo buffer and equilibrate to room temperature prior to use. • Equilibrate the lyophilized CellTiter-Glo substrate to room temperature prior to use. • Transfer the appropriate volume of CellTiter-Glo buffer into the amber bottle containing CellTiter-Glo substrate to reconstitute the lyophilized enzyme/substrate mixture. This forms the CellTiter-Glo reagent. • Mix by gently vortexing, swirling or by inverting the contents to obtain a homogeneous solution. The CellTiter-Glo substrate should go into solution easily in less than one minute.
• Observe the cell morphology under an inverted microscope after corresponding treatment. • Equilibrate the plate and its contents to room temperature for approximately 30 minutes. • Add 100 μL of CellTiter-Glo reagent to the assay plate by Multidrop Combi instrument. • Mix contents for 10 minutes on an orbital shaker to induce cell lysis. • Allow the plate to incubate at room temperature for 10 minutes to stabilize luminescent signal. • Paste the clear bottom with white back seal and record luminescence with Enspire. The settings should be: Luminescence, measurement time 0.1 ms.
Inhibition (%) and absolute IC50 (μM) of each compound was calculated with XLFit curve fitting software that is compatible to Activity Base.

The mark [3] stands for this setting: compound 1 μM + 0.1 μg/mL LPS, ELISA (LPS control 18.16).
Where [4] appears, read: compound 10 μM + 0.1 μg/mL LPS, ELISA (LPS control 18.16).
Where [5] appears, read: compound 1 μM + 0.1 μg/mL LPS, 72 h (LPS control 84.50).
Where [6] appears, read: compound 10 μM + 0.1 μg/mL LPS, 72 h (LPS control 84.50).

`C[C@@H]1C[C@H]2[C@@H]3CCC4=CC(=O)C=C[C@]4(C)[C@@]3(F)[C@@H](O)C[C@]2(C)[C@@]1(O)C(=O)CO` [Dex, dexamethasone, reference compound]: the “decrease of the level of TNF-α as compared to LPS-treated cells” value with TNF-α (1 μg/mL Dex) is reported as 2.5 folds. Besides, the TNF-α in the test with TNF-α (1 μg/ml Dex + 0.1 μg/ml LPS + 0.1% DMSO) was 5.38 pg/mL. For the same molecule, the CTG signal in test [1] (1 μg/ml Dex + 0.1 μg/ml LPS + 0.1% DMSO, 72 h) was 65.51 10^4.

`CCCCCc1cc2c(c(O)c1C(N)=O)[C@@H]1C=C(C)CC[C@H]1C(C)(C)O2` [Ia1, (6aR,0aR)-1-hydroxy-6,6,9-trimethyl-3-pentyl-6a,7,8,10a-tetrahydro-6H-benzo[c]chromene-2-carboxamide]: the TNF-α with TNF-α (setting [3]) was found to be 16.30 pg/mL; in the test with TNF-α (setting [4]) it was 11.85 pg/mL. For the same molecule, the CTG signal was 74.10 10^4 in test [1] (setting [5]) and 70.03 10^4 in test [1] (setting [6]).

With `CCCCCc1cc2c(c(O)c1C(=O)NCCOC)[C@@H]1C=C(C)CC[C@H]1C(C)(C)O2` [Ia4, (6aR,0aR)-1-hydroxy-N-(2-methoxyethyl)-6,6,9-trimethyl-3-pentyl-6a,7,8,10a-tetrahydro-6H-benzo[c]chromene-2-carboxamide], in test [2], the IC50 is > 10 µM and the Inhibition % worked out at 3.13%.

In the case of `CCCCCc1cc2c(c(O)c1C(=O)NCC1CC1)[C@@H]1C=C(C)CC[C@H]1C(C)(C)O2` [Ia5, (6aR,0aR)—N-(cyclopropylmethyl)-1-hydroxy-6,6,9-trimethyl-3-pentyl-6a,7,8,10a-tetrahydro-6H-benzo[c]chromene-2-carboxamide], the IC50 in test [2] is > 10 µM. The molecule further displayed an Inhibition % in test [2] of 7.89%. The TNF-α with TNF-α (setting [3]) turned out to be 19.60 pg/mL; with TNF-α (setting [4]), 32.33 pg/mL. The “change of TNF-α expression in LPS-treated cells” value (shortened to “change of TNF-α expression”) with TNF-α is listed as “increased TNF-α expression”. Moreover, the CTG signal is reported as 74.73 10^4 in test [1] (setting [5]) and 76.26 10^4 in test [1] (setting [6]).

On to `CCCCCc1cc2c(c(O)c1C(=O)NCc1ccncc1)[C@@H]1C=C(C)CC[C@H]1C(C)(C)O2` [Ia11, 1-hydroxy-6,6,9-trimethyl-3-pentyl-N-(pyridin-4-ylmethyl)-6a,7,8,10a-tetrahydro-6H-benzo[c]chromene-2-carboxamide], for which, in test [2], the IC50 was > 10 µM. The Inhibition % in test [2] came to 15.80%. For the same molecule, the figures for the TNF-α in the test on TNF-α (setting [3]) and with TNF-α (setting [4]) were 28.40 pg/mL and 15.39 pg/mL, respectively. For the same molecule, in the test with TNF-α, the “change of TNF-α expression” value was “decreased TNF-α expression”. Moreover, the CTG signal in test [1] (setting [5]) was 72.49 10^4; in test [1] (setting [6]), 74.91 10^4.

On to `CCCCCc1cc2c(c(O)c1C(=O)Nc1ccc(N3CCOCC3)cc1)[C@@H]1C=C(C)CC[C@H]1C(C)(C)O2` [Ia17, (6aR,0aR)-1-hydroxy-6,6,9-trimethyl-N-(4-morpholinophenyl)-3-pentyl-6a,7,8,10a-tetrahydro-6H-benzo[c]chromene-2-carboxamide], for which the TNF-α stood at 16.44 pg/mL in the test with TNF-α (setting [3]) and 24.59 pg/mL in the test on TNF-α (setting [4]). Also, in the test with TNF-α, the “change of TNF-α expression” value is recorded as “increased TNF-α expression”. Further, the CTG signal in test [1] (setting [5]) is reported as 74.83 10^4; in test [1] (setting [6]) it was 72.61 10^4.

Turning to `CCCCCc1cc2c(c(O)c1CNCCCN1CCOCC1)[C@@H]1C=C(C)CC[C@H]1C(C)(C)O2` [Ia21, (6aR,10aR)-6,6,9-trimethyl-2-(((3-morpholinopropyl)amino)methyl)-3-pentyl-6a,7,8,10a-tetrahydro-6H-benzo[c]chromen-1-ol], in test [2], the IC50 is > 10 µM and the Inhibition % is reported as 21.68%.

Consider `CCCCCc1cc2c(c(O)c1-c1nnc(C)o1)[C@@H]1C=C(C)CC[C@H]1C(C)(C)O2` [Ia24, (6aR,0aR)-6,6,9-Trimethyl-2-(5-methyl-1,3,4-oxadiazol-2-yl)-3-pentyl-6a,7,8,10a-tetrahydro-6H-benzo[c]chromen-1-ol], for which the TNF-α with TNF-α (setting [3]) was 32.33 pg/mL; in the test on TNF-α (setting [4]), 28.53 pg/mL. Further, the “change of TNF-α expression” value in the test on TNF-α is reported as “decreased TNF-α expression”. The CTG signal in test [1] (setting [5]) is reported as 77.88 10^4; in test [1] (setting [6]) it was 62.41 10^4.

`CCCCCc1cc2c(c(O)c1C(=O)S)[C@@H]1C=C(C)CC[C@H]1C(C)(C)O2` [Ia25, (6aR,0aR)-1-hydroxy-6,6,9-trimethyl-3-pentyl-6a,7,8,10a-tetrahydro-6H-benzo[c]chromene-2-carbothioic S-acid]: the TNF-α in the test on TNF-α (setting [3]) came out at 42.50 pg/mL; in the test with TNF-α (setting [4]) it was 36.82 pg/mL. Besides, the “change of TNF-α expression” value with TNF-α is reported as “decreased TNF-α expression”. In addition, the figures for the CTG signal in test [1] (setting [5]) and in test [1] (setting [6]) were 83.27 10^4 and 75.29 10^4, respectively.
